According to US8470828B2, “Anellated pyridine compounds” (Hoffmann-La Roche Inc., priority 2010, dated 2013):

Experiments:
[1] = target: T1, human D2 receptor (Homo sapiens, UniProt P14416); test: Radioligand binding to cloned human D2 receptor expressed in HEK-293 EBNA cells ([3H]-spiperone); conditions: HEK293 EBNA cell membranes, approximately 0.7 nM [3H]-spiperone, 1 h at RT
T1 construct: expressed in transfected cells; host or cells: HEK293 EBNA cells, transient transfection; membrane preparation
Description: (§1) HEK293 EBNA cells were transiently transfected with expression plasmids encoding for the human D2 or D3 or for the human 5-HT2A receptor, respectively. The cells were harvested 48 h post-transfection, washed three times with cold PBS and stored at −80° C. prior to use. The pellet was suspended in cold 50 mM Tris-HCl buffer comprising 10 mM EDTA (pH 7.4) and was homogenized with a Polytron (Kinematica A G, Basel, Switzerland) for 20-30 sec at 12.000 rpm. After centrifugation at 48.000×g for 30 min at 4° C., the pellet was resuspended in cold 10 mM Tris-HCl buffer comprising 0.1 mM EDTA (pH 7.4), homogenized, and centrifuged as above. This pellet was further resuspended in a smaller volume of ice cold 10 mM Tris-HCl buffer comprising 0.1 mM EDTA (pH 7.4) and homogenized with a Polytron for 20-30 sec at 12.000 rpm. The protein content of this homogenate was determined with the Bio-Rad (Bradford) Protein Assay (Biorad Laboratories GmbH, München, Germany) according to the instructions of the manufacturer using gamma globulin as the standard. This homogenate was stored at −80° C. in aliquots and thawed immediately prior to use.
(§2) Aliquots of membrane preparations were thawed at RT, resupended in assay buffer (D2, D3: 50 mM Tris-HCl, 120 mM NaCl, 5 mM MgCl2, 1 mM EDTA, 5 mM KCl, 1.5 mM CaCl2, pH=7.4; 5-HT2A: 50 mM Tris-HCl, 10 mM MgCl2, 1 mM EGTA, pH=7.4), homogenized with a Polytron for 20-30 sec at 12.000 rpm and adjusted to a final concentration of approximately 7.5 μg protein/well (D2, D3) and 15 μg protein/well (5-HT2A), respectively.
(§3) The binding affinity (Ki) of the compounds was determined using radioligand binding. Membranes were incubated in a total volume of 200 μl with a fixed concentration of radioligand (final concentration approximately 0.7 nM [^3H]-spiperone for D2, 0.5 nM [^3H]-spiperone for D3, and 1.1 nM [^3H]-ketanserin for 5-HT2A) and ten concentrations of test compound in ranging between 10 μM-0.1 nM for 1 h at RT. At the end of the incubation, the reaction mixtures were filtered on to unifilter 96-well white microplates with bonded GF/C filters (Packard BioScience, Zürich, Switzerland; preincubated for 1 h in 0.1% polyethylenimine (PEI) in assay buffer) with a Filtermate 196 harvester (Packard BioScience) and washed 3 times with cold assay buffer. The nonspecific binding was determined with equally composed reaction mixtures in the presence of 10 μM unlabelled spiperone. Per well 45 μl of Microscint 40 (Perkin Elmer, Schwerzenbach, Switzerland) was added, plates for sealed, shaken for 20 min and counted for 3 min on a Topcount Microplate Scintillation Counter (Can berra Packard S A, Zürich, Switzerland) with quenching correction.
(§4) The CPM value for each duplicate of a concentration of competing compound was averaged (y1), then the % specific binding was calculated according to the equation (((y1−non-specific)/(total binding−non-specific))×100). Graphs were plotted with the % specific binding using XLfit, a curve fitting program that iteratively plots the data using Levenberg-Marquardt algorithm. The single site competition analysis equation used was y=A+((B−A)/(1+((x/C)D))), where y is the % specific binding, A is the minimum y, B is the maximum y, C is the IC50, x is the log 10 of the concentration of the competing compound and D is the slope of the curve (the Hill Coefficient). […] The affinity constant (Ki) was calculated using the Cheng-Prusoff equation Ki=(IC50/1+([L]/Kd), where [L] is the concentration of radioligand and Kd is the dissociation constant of the radioligand at the receptor as determined by the saturation isotherm.

[2] = target: human D3 receptor (Homo sapiens, UniProt P35462); test: Radioligand binding to cloned human D3 receptor expressed in HEK-293 EBNA cells ([3H]-spiperone)
[3] = target: human 5-HT2A receptor (Homo sapiens, UniProt P28223); test: Radioligand binding to cloned human 5-HT2A receptor expressed in HEK-293 EBNA cells ([3H]-ketanserin)
Chain of human 5-HT2A receptor (P28223 whole entry): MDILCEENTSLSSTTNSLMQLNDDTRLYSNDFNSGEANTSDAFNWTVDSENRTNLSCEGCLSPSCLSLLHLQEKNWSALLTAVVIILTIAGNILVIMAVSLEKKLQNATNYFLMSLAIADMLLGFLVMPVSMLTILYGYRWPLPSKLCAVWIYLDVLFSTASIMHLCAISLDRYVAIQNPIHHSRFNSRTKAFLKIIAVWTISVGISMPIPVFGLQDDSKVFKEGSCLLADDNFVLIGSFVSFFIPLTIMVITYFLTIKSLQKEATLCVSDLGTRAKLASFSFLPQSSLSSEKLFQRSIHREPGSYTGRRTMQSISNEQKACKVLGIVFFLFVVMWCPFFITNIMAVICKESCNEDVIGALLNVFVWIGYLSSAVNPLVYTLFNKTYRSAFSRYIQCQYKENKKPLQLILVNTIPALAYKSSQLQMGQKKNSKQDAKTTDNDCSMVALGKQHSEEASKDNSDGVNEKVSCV
Description: as §1, §2, §3, §4

T1 sequence (P14416 whole entry): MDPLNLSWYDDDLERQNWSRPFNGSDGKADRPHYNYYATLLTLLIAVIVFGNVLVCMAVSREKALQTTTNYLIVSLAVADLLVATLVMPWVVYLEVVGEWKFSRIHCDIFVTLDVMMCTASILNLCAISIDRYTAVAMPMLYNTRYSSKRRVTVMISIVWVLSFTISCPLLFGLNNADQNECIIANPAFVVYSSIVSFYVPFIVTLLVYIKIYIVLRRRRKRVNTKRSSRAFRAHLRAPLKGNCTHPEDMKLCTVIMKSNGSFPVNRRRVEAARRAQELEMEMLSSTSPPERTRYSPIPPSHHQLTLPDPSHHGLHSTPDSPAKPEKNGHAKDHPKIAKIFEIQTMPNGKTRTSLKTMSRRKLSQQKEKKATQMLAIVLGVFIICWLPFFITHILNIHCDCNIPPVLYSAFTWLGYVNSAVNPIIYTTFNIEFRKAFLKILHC
Chain of human D3 receptor (P35462 whole entry): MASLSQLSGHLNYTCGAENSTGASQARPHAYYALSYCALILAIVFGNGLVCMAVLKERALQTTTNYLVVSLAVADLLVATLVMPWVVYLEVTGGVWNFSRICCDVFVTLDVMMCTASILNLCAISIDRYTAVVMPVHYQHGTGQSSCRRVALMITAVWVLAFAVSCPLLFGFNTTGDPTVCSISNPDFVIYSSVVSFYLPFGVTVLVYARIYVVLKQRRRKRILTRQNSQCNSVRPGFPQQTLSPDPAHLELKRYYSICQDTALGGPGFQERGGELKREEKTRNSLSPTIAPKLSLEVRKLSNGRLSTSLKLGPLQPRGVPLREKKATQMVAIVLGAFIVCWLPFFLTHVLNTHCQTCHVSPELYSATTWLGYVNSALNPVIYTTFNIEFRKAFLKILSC

SMILES | Ki [1] | melting point | Ki [2] | Ki [3]
CS(=O)(=O)c1ccc(C(=O)N[C@H]2CC[C@H](CCN3CCN(c4nccc5c4OCC5)CC3)CC2)s1 [Example 81, 5-Methanesulfonyl-thiophene-2-carboxylic acid trans-(4-{2-[4-(2,3-dihydro-furo[2,3-c]pyridin-7-yl)-piperazin-1-yl]-ethyl}-cyclohexyl)-amide] | 362 nM | 212 °C | 12.2 nM | 19 nM
O=C(CCC(F)(F)F)N[C@H]1CC[C@H](CCN2CCN(c3nccc4c3OCC4)CC2)CC1 [Example 84, trans-N-(4-{2-[4-(2,3-Dihydro-furo[2,3-c]pyridin-7-yl)-piperazin-1-yl]-ethyl}-cyclohexyl)-4,4,4-trifluoro-butyramide] | 1410 nM | 204.5 °C | 14.2 nM | 112 nM
O=C(N[C@H]1CC[C@H](CCN2CCN(c3nccc4c3OCC4)CC2)CC1)C1CC1(F)F (stereo partly drawn) [Example 85, 2,2-Difluoro-cyclopropanecarboxylic acid trans-(4-{2-[4-(2,3-dihydro-furo[2,3-c]pyridin-7-yl)-piperazin-1-yl]-ethyl}-cyclohexyl)-amide] | 616 nM | 227 °C | 9.89 nM | 60.2 nM
CC#CC(=O)N[C@H]1CC[C@H](CCN2CCN(c3nccc4c3OCC4)CC2)CC1 [Example 86, But-2-ynoic acid trans-(4-{2-[4-(2,3-dihydro-furo[2,3-c]pyridin-7-yl)-piperazin-1-yl]-ethyl}-cyclohexyl)-amide] | 434 nM | 176 °C | 7.33 nM | 38.8 nM
C/C=C/CC(=O)N[C@H]1CC[C@H](CCN2CCN(c3nccc4c3OCC4)CC2)CC1 [Example 87, (E)-Pent-3-enoic acid trans-(4-{2-[4-(2,3-dihydro-furo[2,3-c]pyridin-7-yl)-piperazin-1-yl]-ethyl}-cyclohexyl)-amide] | 939 nM | 170 °C | 6.64 nM | 73.6 nM
CC(C)=CC(=O)N[C@H]1CC[C@H](CCN2CCN(c3nccc4c3OCC4)CC2)CC1 [Example 88, 3-Methyl-but-2-enoic acid trans-(4-{2-[4-(2,3-dihydro-furo[2,3-c]pyridin-7-yl)-piperazin-1-yl]-ethyl}-cyclohexyl)-amide] | 201 nM | 183.5 °C | 9.4 nM | 59.5 nM
CC(C)(C)CC(=O)N[C@H]1CC[C@H](CCN2CCN(c3nccc4c3OCC4)CC2)CC1 [Example 89, trans-N-(4-{2-[4-(2,3-Dihydro-furo[2,3-c]pyridin-7-yl)-piperazin-1-yl]-ethyl}-cyclohexyl)-3,3-dimethyl-butyramide] | 435 nM | 193 °C | 15.1 nM | 58.8 nM
CC(C)(C)C(=O)N[C@H]1CC[C@H](CCN2CCN(c3nccc4c3OCC4)CC2)CC1 [Example 90, trans-N-(4-{2-[4-(2,3-Dihydro-furo[2,3-c]pyridin-7-yl)-piperazin-1-yl]-ethyl}-cyclohexyl)-2,2-dimethyl-propionamide] | 671 nM | 194.5 °C | 50.5 nM | 48.9 nM
C[C@]1(O)CC[C@H](C(=O)N[C@H]2CC[C@H](CCN3CCN(c4nccc5c4OCC5)CC3)CC2)CC1 [Example 91, trans-4-Hydroxy-4-methyl-cyclohexanecarboxylic acid trans-(4-{2-[4-(2,3-dihydro-furo[2,3-c]pyridin-7-yl)-piperazin-1-yl]-ethyl}-cyclohexyl)-amide] | 481 nM | 172.5 °C | 18.6 nM | 32 nM
CO[C@H]1CC[C@H](CC(=O)N[C@H]2CC[C@H](CCN3CCN(c4nccc5c4OCC5)CC3)CC2)CC1 [Example 92, trans-N-(4-{2-[4-(2,3-Dihydro-furo[2,3-c]pyridin-7-yl)-piperazin-1-yl]-ethyl}-cyclohexyl)-trans-2-(4-methoxy-cyclohexyl)-acetamide] | 1750 nM | 188.5 °C | 12.2 nM | 53.3 nM
C[C@]1(O)CC[C@@H](C(=O)N[C@H]2CC[C@H](CCN3CCN(c4nccc5c4OCC5)CC3)CC2)CC1 [Example 93, cis-4-Hydroxy-4-methyl-cyclohexanecarboxylic acid trans-(4-{2-[4-(2,3-dihydro-furo[2,3-c]pyridin-7-yl)-piperazin-1-yl]-ethyl}-cyclohexyl)-amide] | 832 nM | 219 °C | 38.4 nM | 30.7 nM
CN(C)C(=O)N[C@H]1CC[C@H](CCN2CCN(c3nccc4c3OCC4)CC2)CC1 [Example 94, trans-3-(4-{2-[4-(2,3-Dihydro-furo[2,3-c]pyridin-7-yl)-piperazin-1-yl]-ethyl}-cyclohexyl)-1,1-dimethyl-urea] | 429 nM | 217.5 °C | 82 nM | 135 nM
CN(C)S(=O)(=O)N[C@H]1CC[C@H](CCN2CCN(c3nccc4c3OCC4)CC2)CC1 [Example 95, N′-(trans-4-{2-[4-(2,3-Dihydro-furo[2,3-c]pyridin-7-yl)-piperazin-1-yl]-ethyl}cyclohexyl)-N,N-dimethylsulfamide] | 641 nM | 128 °C | 10.8 nM | 31.1 nM
O=S(=O)(N[C@H]1CC[C@H](CCN2CCN(c3nccc4c3OCC4)CC2)CC1)c1ccc(F)cc1 [Example 96, trans-N-(4-{2-[4-(2,3-Dihydro-furo[2,3-c]pyridin-7-yl)-piperazin-1-yl]-ethyl}-cyclohexyl)-4-fluoro-benzenesulfonamide] | 200 nM | 148 °C | 5.27 nM | 204 nM
O=C(CC1COC1)N[C@H]1CC[C@H](CCN2CCN(c3nccc4c3OCC4)CC2)CC1 [Example 98, trans-N-(4-{2-[4-(2,3-Dihydro-furo[2,3-c]pyridin-7-yl)-piperazin-1-yl]-ethyl}-cyclohexyl)-2-oxetan-3-yl-acetamide] | 420 nM | 175 °C | 4.88 nM | 31.6 nM
O=S(=O)(N[C@H]1CC[C@H](CCN2CCN(c3nccc4c3OCC4)CC2)CC1)c1ccccc1 [Example 99, trans-N-(4-{2-[4-(2,3-Dihydro-furo[2,3-c]pyridin-7-yl)-piperazin-1-yl]-ethyl}-cyclohexyl)-benzenesulfonamide] | 233 nM | 122.5 °C | 6 nM | 151 nM
CO[C@H](C)C(=O)N[C@H]1CC[C@H](CCN2CCN(c3nccc4c3OCC4)CC2)CC1 [Example 100, trans-(R)—N-(4-{2-[4-(2,3-Dihydro-furo[2,3-c]pyridin-7-yl)-piperazin-1-yl]-ethyl}-cyclohexyl)-2-methoxy-propionamide] | 714 nM | 170.5 °C | 30.9 nM | 22.9 nM
O=C(CC1(O)CCC1)N[C@H]1CC[C@H](CCN2CCN(c3nccc4c3OCC4)CC2)CC1 [Example 102, trans-N-(4-{2-[4-(2,3-Dihydro-furo[2,3-c]pyridin-7-yl)-piperazin-1-yl]-ethyl}-cyclohexyl)-2-(1-hydroxy-cyclobutyl)-acetamide] | 478 nM | 155 °C | 11.8 nM | 50.6 nM
CC[C@@H](O)CC(=O)N[C@H]1CC[C@H](CCN2CCN(c3nccc4c3OCC4)CC2)CC1 [Example 103, (R)-3-Hydroxy-pentanoic acid trans-(4-{2-[4-(2,3-dihydro-furo[2,3-c]pyridin-7-yl)-piperazin-1-yl]-ethyl}-cyclohexyl)-amide] | 874 nM | 146 °C | 20.1 nM | 113 nM
